Source: PMC6736568, “Discovery of Novel Anti-cryptosporidial Activities From Natural Products by in vitro High-Throughput Phenotypic Screening” (Frontiers in Microbiology, 2019)
Structures can show the parent of a compound that is named as a salt. Where two headings read alike, the source gives them in different places.

Assays:
Cryptosporidium parvum = assay: qRT-PCR assay of the growth of C. parvum in vitro in HCT-8 host cells (primary and secondary screening, EC50); assay type: cell-based; conditions: Cryptosporidium parvum, HCT-8; for inhibition at 3.3 µM: secondary screening at 3.3 uM, read-out: % Inhibition (3.3 uM)
[1] = primary screening at 10 uM, read-out: Inhibition (%)
[2] = primary screening at 10 uM, treated vs control

Hs18S ΔCT (HCT-8 host cells (Hs18S); human, 41 h, 10 μM)	Structure (SMILES)	inhibition at 10 µM (Cryptosporidium parvum; [1]) [%]	cytotoxicity at 41 h, 10 µM (in vitro; human) [%]	further results
0.05	COc1cccc(O)c1O [3-METHOXYCATECHOL]	-66.7	3.2	
-0.36	Nc1nc2c(c(=O)[nH]1)N=C(CNc1ccc(C(=O)N[C@@H](CCC(=O)O)C(=O)O)cc1)CN2 [DIHYDROFOLIC ACID]	-11.9	-28.7	
-0.81	COC(=O)C[C@H]1C(C)(C)[C@@H](OC(C)=O)[C@@H]2CC3=C4CC(=O)O[C@@H](c5ccoc5)[C@]4(C)CC[C@@H]3[C@@]1(C)C2=O [FISSINOLIDE]	-39.8	-75.3	
0.02	CC(=O)O[C@@H]1C[C@H]2C(C)(C)C(=O)C=C[C@]2(C)[C@H]2CC[C@@]3(C)[C@H](c4ccoc4)OC(=O)[C@H]4O[C@]43[C@@]21C [GEDUNIN]	6.58	1.2	
0.02	CCCCCC(=O)Cc1cc(O)cc(O)c1C(=O)Oc1cc(CC(=O)CCCCC)c(C(=O)O)c(OC)c1 [ARTHONIOIC ACID]	-25.4	1.1	
0.02	COc1ccccc1O [GUAIACOL]	-32.9	1.6	
-0.31	COc1ccc(C(C)=O)c(OC)c1 [PEONOL METHYL ETHER]	18.9	-24.3	
-0.39	CC(C)=CCc1c(O)cc2oc(C)cc(=O)c2c1O [PEUCENIN]	2.08	-31.3	
-0.06	COc1cc(C(C)=O)cc(OC)c1O [ACETOSYRINGONE]	-26.9	-4	
-0.38	CCCCCCCCCCCCCCCCCCCCCCO [DOCOSANOL]	24.4	-30.5	
-0.12	CCOc1ccc(C(=O)c2ccc(OC)c(O)c2O)cc1 [2,3-DIHYDROXY-4-METHOXY-4'-ETHOXYBENZOPHENONE]	39	-8.6	
0.00	C[C@@H]1CC[C@H]2[C@@H](C)C(=O)O[C@@H]3O[C@@]4(C)CC[C@@H]1[C@]32OO4 [ARTEMISININ]	16.7	0	
0.11	CC1(C)CC2C1CCC1(C)OC2(C)CCC1O (stereo not shown) [3,7-EPOXYCARYOPHYLLAN-6-OL]	12.9	7.2	
-0.18	OC[C@H]1O[C@@](CO)(O[C@H]2O[C@H](CO)[C@@H](O)[C@H](O)[C@H]2O)[C@@H](O[C@H]2O[C@H](CO)[C@@H](O)[C@H](O)[C@H]2O)[C@@H]1O [MELEZITOSE]	-16.8	-13	
0.22	CC[C@H](C)C(=O)O[C@H]1CCC=C2C=C[C@H](C)[C@H](CC[C@@H]3C[C@@H](O)CC(=O)O3)[C@H]21 [MEVASTATIN]	24	14.4	
-0.45	COC(=O)[C@@H]1[C@H]2C[C@H]3c4[nH]c5ccccc5c4CCN3C[C@@H]2CC[C@@H]1O [YOHIMBINE HYDROCHLORIDE]	5.49	-36.5	

The next lines start with the compound.

Structure (SMILES)	Hs18S ΔCT (HCT-8 host cells (Hs18S); human, 41 h, 10 μM)	inhibition at 10 µM (Cryptosporidium parvum; [1]) [%]	cytotoxicity at 41 h, 10 µM (in vitro; human) [%]	further results
CC(=O)O[C@H]1CC[C@@]2(C)C(=CC(=O)[C@H]3[C@@H]4CC[C@H]([C@H](C)CCCC(C)C)[C@@]4(C)CC[C@@H]32)C1 [7-OXOCHOLESTERYL ACETATE]	-0.20	-24.9	-15.2	
COc1ccc(-c2cc(=O)c3c(OC)c(OC)c(OC)cc3o2)cc1OC [SINENSETIN]	0.39	42.8	23.6	
OCC(O)C(O)C(O)C(O)C(O)CO (stereo not shown) [PERSEITOL]	-0.23	11.3	-17.1	
COc1cc(OC)c2c(=O)c(-c3ccc4c(c3)OCO4)coc2c1 [DERRUSTONE]	0.39	61.3	23.9	inhibition at 3.3 µM (Cryptosporidium parvum): -77%
c1cncc(C2=NCCC2)c1 [MYOSMINE]		-17.6		Hs18S ΔCT (HCT-8 host cells (Hs18S); [2]): 0.07; cytotoxicity at 10 µM (in vitro): 4.5%
C=C1C[C@]23C[C@@]1(O)CC[C@H]2[C@@]12C=C[C@H](O)[C@@](C)(C(=O)O1)[C@H]2[C@@H]3C(=O)O [GIBBERELLIC ACID]		32.7		Hs18S ΔCT (HCT-8 host cells (Hs18S); [2]): 0.09; cytotoxicity at 10 µM (in vitro): 5.9%
C=CC1=C(C)/C(=C/c2[nH]c(Cc3[nH]c(/C=C4\NC(=O)C(C)=C4C=C)c(C)c3CCC(=O)O)c(CCC(=O)O)c2C)NC1=O [BILIRUBIN]	-0.01	-7.55	-0.9	
Cc1[nH]c2ccccc2c1CN(C)C [2-METHYL GRAMINE]	-0.11	0.92	-7.5	
O=C(O)c1cc(=O)[nH]c(=O)[nH]1 [OROTIC ACID]	-0.39	8.85	-31.1	
Oc1cc(O)c2c(c1)O[C@H](c1ccc(O)c(O)c1)[C@@H](O)C2 [CIANIDANOL]	-0.20	2	-14.9	
C[C@H](CCC(=O)O)[C@H]1CC[C@H]2[C@@H]3[C@H](O)C[C@@H]4C[C@H](O)CC[C@]4(C)[C@H]3CC[C@]12C [CHENODIOL]	0.27	77.7	17.2	
O=c1c2ccccc2oc2ccccc12 [XANTHONE]	0.13	0.45	8.9	
CN1C(=O)CC[C@H]1c1cccnc1 [COTININE]	0.41	42.6	24.7	
CC[C@@]1(O)C[C@H](O)c2c(cc3c(c2O)C(=O)c2c(O)ccc(O)c2C3=O)[C@H]1C(=O)OC [RUTILANTINONE]		92		inhibition at 3.3 µM (Cryptosporidium parvum): -3%; Hs18S ΔCT (HCT-8 host cells (Hs18S); [2]): -0.54; cytotoxicity at 10 µM (in vitro): -45.2%
C[C@@H]1O[C@@H](O[C@H]2[C@H](Oc3cc(O)c4c(c3)O[C@H](c3ccc(O)cc3)CC4=O)O[C@H](CO)[C@@H](O)[C@@H]2O)[C@H](O)[C@H](O)[C@H]1O [NARINGIN]	0.16	2.06	10.4	
CCC(C)C(=O)O[C@@H]1C[C@@]2(C)[C@H](c3ccoc3)OC(=O)CC23OC2(C)O[C@]14[C@]1(C)[C@@H](CC(=O)OC)C5(C)CC1(O)[C@](O)(C5OC(=O)C1(C)OC1C)[C@@H](OC(C)=O)[C@]34O2 (stereo partly shown) [UTILIN]	0.06	36.8	4.2	

Structure (SMILES)	Hs18S ΔCT (HCT-8 host cells (Hs18S); human, 41 h, 10 μM)	inhibition at 10 µM (Cryptosporidium parvum; [1]) [%]	cytotoxicity at 41 h, 10 µM (in vitro; human) [%]	further results
CC1(C)C=Cc2cc3ccc(=O)oc3cc2O1 [XANTHYLETIN]		1.74		Hs18S ΔCT (HCT-8 host cells (Hs18S); [2]): 0.12; cytotoxicity at 10 µM (in vitro): 8.1%
CC(C)CCC[C@@H](C)[C@H]1CC[C@H]2[C@@H]3CC[C@H]4CC(=O)CC[C@]4(C)[C@H]3CC[C@]12C [CHOLESTAN-3-ONE]		-36.7		Hs18S ΔCT (HCT-8 host cells (Hs18S); [2]): -0.48; cytotoxicity at 41 h, 10 µM (in vitro): -39.9%
NCCc1c[nH]c2ccc(O)cc12 [SEROTONIN HYDROCHLORIDE]		10.2		Hs18S ΔCT (HCT-8 host cells (Hs18S); [2]): -0.40; cytotoxicity at 10 µM (in vitro): -31.7%
O=C(CCc1ccc(O)cc1)c1c(O)cc(O)cc1O [PHLORETIN]	-0.15	-5.73	-10.8	
C[C@@H]1C(=O)O[C@H]2[C@H]1CC[C@@]1(C)C=CC(=O)[C@@]3(C)O[C@@]213 [EPOXY (4,5alpha)-4,5-DIHYDROSANTONIN]		29.7		Hs18S ΔCT (HCT-8 host cells (Hs18S); [2]): -0.03; cytotoxicity at 10 µM (in vitro): -1.8%
C/C=C(\C)C(=O)O[C@H]1C[C@@H](OC(C)=O)[C@@]2(C(=O)OC)CO[C@H]3[C@@H](O)[C@@](C)([C@]45O[C@@]4(C)[C@H]4C[C@@H]5O[C@@H]5OC=C[C@@]54O)[C@H]4[C@]1(CO[C@]4(O)C(=O)OC)[C@@H]32 [AZADIRACHTIN]	0.00	23.7	-0.1	
CC(C)=CCOc1cc2oc(=O)ccc2cc1O [PRENYLETIN]	-0.59	-6.72	-50	
COc1ccc(-c2oc3c(CC=C(C)C)c(O[C@@H]4O[C@H](CO)[C@@H](O)[C@H](O)[C@H]4O)cc(O)c3c(=O)c2O[C@@H]2O[C@@H](C)[C@H](O)[C@@H](O)[C@H]2O)cc1 [ICARIIN]	-0.22	-12.3	-16.4	
O=C1C[C@@H]2OCC=C3CN4CC[C@]56c7ccccc7N1[C@H]5[C@H]2[C@H]3C[C@H]46 [STRYCHNINE]				inhibition at 10 µM (Cryptosporidium parvum): 29%; Hs18S ΔCT (HCT-8 host cells (Hs18S)): -0.30; cytotoxicity at 10 µM (in vitro): -23.5%
CC(C)C1=CC2=CC[C@@H]3[C@](C)(CCC[C@@]3(C)C(=O)O)[C@H]2CC1 [ABIETIC ACID]		-58.3		Hs18S ΔCT (HCT-8 host cells (Hs18S); [2]): -0.39; cytotoxicity at 10 µM (in vitro): -30.7%
CN1[C@@H]2C[C@@H](OC(=O)[C@H](CO)c3ccccc3)C[C@H]1[C@@H]1O[C@@H]12 [SCOPOLAMINE HYDROBROMIDE]		14		Hs18S ΔCT (HCT-8 host cells (Hs18S); [2]): -0.37; cytotoxicity at 10 µM (in vitro): -29.6%
NCCc1c[nH]c2ccccc12 [TRYPTAMINE]		95.5		inhibition at 3.3 µM (Cryptosporidium parvum): 12%; Hs18S ΔCT (HCT-8 host cells (Hs18S); [2]): -0.43; cytotoxicity at 10 µM (in vitro): -34.7%
COc1ccc2c(c1)[nH]c1c(C)nccc12 [HARMINE]		82.2		inhibition at 3.3 µM (Cryptosporidium parvum): -62%; Hs18S ΔCT (HCT-8 host cells (Hs18S); [2]): 0.49; cytotoxicity at 10 µM (in vitro): 28.6%
COc1ccc([C@@H]2CC(=O)c3c(O)cc(O)cc3O2)cc1O [HESPERETIN]	-0.02	17.6	-1.2	
COc1cc2c(c(OC)c1OC)-c1ccc(OC)c(=O)cc1[C@@H](NC(C)=O)CC2 [COLCHICINE]		24.9		Hs18S ΔCT (HCT-8 host cells (Hs18S); [2]): -0.34; cytotoxicity at 10 µM (in vitro): -26.5%
O=c1c(O)cccc2cc(O)c(O)c(O)c12 [PURPUROGALLIN]	-0.01	-12.6	-0.7	
